What was measured:
[1] = tested on: IL-2-induced multisystem organ edema; conditions: ref [5]; cited from earlier work
From the text: (§1) Antamanide (AA) is a monocyclic, homodetic decapeptide isolated from the poisonous mushroom Amanita phalloides. […] Little is known about the biochemical mechanisms underlying these diverse bioactivities. To explain its antitoxic activity, ...

[2] = tested on: hepatocyte membrane transporter for the phallotoxin phalloidin and for the amatoxin alpha-amanitin; conditions: proposed; ref [6], [7]; cited from earlier work
From the text: as §1

animal model = conditions: ref [4]; cited from earlier work
From the text: as §1

tumour cell models = conditions: in vitro; ref [3]; cited from earlier work
From the text: as §1

[3] = tested on: organic anion-transporting polypeptide family; conditions: also our unpublished data; ref [8]; cited from earlier work
From the text: Antamanide (AA) is a monocyclic, homodetic decapeptide isolated from the poisonous mushroom Amanita phalloides. […] Little is known about the biochemical mechanisms underlying these diverse bioactivities. […] The CyP chaperone activity, i.e. the isomerization to the cis form of the peptidyl bonds preceding each proline, is involved in folding and association processes required for proteins to perform thei ...

[4] = tested on: mitochondrial permeability transition pore (PTP), CyP-D knock-out fibroblasts; assay: CRC assay, mitochondria isolated from CyP-D knock-out mouse fibroblasts; type: biochemical; conditions: 25°C, Figure 3B
Experimental: (§2) Figure 3 Effect of AA on respiration and PTP opening in mitochondria of wild-type or CyP-D knock-out mouse fibroblasts. A, upper part: Western blot analysis assessing CyP-D expression in fibroblasts obtained from either wild-type or CyP-D knock-out mice; HKII was utilized to verify protein load; lower part: representative experiment showing oxygen consumption as assessed by polarography (see Methods) in mitochondria isolated from wild-type fibroblasts in the absence (a) or presence (b) of 8 µM AA. Experiments were started by adding 0.6 mg of mitochondria (Mito), followed by 100 µM ADP and 50 µM 2,4-dinitrophenol (DNP) (arrows). Each experiment was repeated at least three times. Oxygen consumption is reported as percentage of initial value on the y axis. B, bar graphs report the ratio between the CRC detected in the presence (CRC) and absence (CRC0) of increasing concentrations of AA, in mitochondria from either wild-type fibroblasts (left) or CyP-D knock-out fibroblasts (right). […] Results are mean±SD of at least 4 experiments.
Mitochondria were isolated either from livers of C57BL/6 mice through sequential centrifugations, or from cells, as described. To obtain mitochondria, cells were disrupted with a glass-Teflon potter in a buffer composed by 250 mM sucrose, 10 mM Tris-HCl, 0.1 mM EGTA-Tris, pH 7.4. […]
PTP opening was detected as a fluorescence increase.

[5] = tested on: mitochondria from CyP-D knock-out fibroblasts; assay: mitochondrial respiration assay, CyP-D knock-out fibroblast mitochondria; type: biochemical, mouse; conditions: polarography, Clark electrode, 25°C
Experimental: as §2
(§3) Mitochondrial oxygen consumption was measured polarographically at 25°C with a Clark oxygen electrode (Yellow Springs Instruments, OH, USA). Mitochondria (0.6 mg per experimental point) were incubated in a solution of 130 mM KCl, 10 mM Tris-Mops, 1 mM Pi-Tris, 20 mM EGTA-Tris and 2 µM rotenone/5 mM succinate to assay basal respiration (state 4). […]

[6] = tested on: membrane permeabilization by phalloidin; assay: membrane permeabilization by phalloidin; type: cell-based; conditions: data not shown
[7] = tested on: mitochondrial permeability transition pore (PTP), wild-type fibroblasts; type: cell-based, mouse; conditions: Figure 4C
Experimental: A, B, PTP opening of digitonized wild-type (A) or CyP-D knock-out (B) fibroblasts was measured with the whole-cell CRC assay. Experiments were started by the addition of digitonized cells (not shown) followed by pulses of Ca^2+ (5 µM each) and are plotted as in Figure 1B. The use of AA is shown with a red trace. Alamethicin (Alm, 1 µM) was added at the end of each measurement to fully release Ca^2+ from intracellular stores. […] D, isomerase activity assay (see Materials and Methods): after addition of the substrate peptide N-succinyl-Ala-Ala-cis-trans-Pro-Phe-p-nitroanilide (arrow), chimotrypsin cleaves the trans-isomeric form, causing a rise in absorbance.
The Ca^2+ retention capacity (CRC) assay was used to assess PTP opening following trains of Ca^2+ pulses and measured fluorimetrically at 25°C in the presence of the Ca^2+ indicator Calcium Green-5N (1 µM; λexc: 505 nm; λem: 535 nm; Molecular Probes). […] Digitonin was then eliminated and the number of cells carefully assessed before starting each experiment. […] Cells or mitochondria were then exposed to Ca^2+ spikes, and fluorescence drops were used to assess mitochondrial Ca^2+ uptake. PTP opening was detected as a fluorescence increase. Calcium Green-5N fluorescence was measured either with a fluorescence spectrometer LS50B (Perkin Elmer, Waltham, MA) or with a Fluoroskan Ascent FL fluorimeter (Thermo Electron Corporation, Waltham, MA).

[8] = tested on: mitochondria isolated from wild-type fibroblasts; assay: mitochondrial respiration assay, wild-type fibroblast mitochondria; type: biochemical, mouse; conditions: 8 µM AA; polarography, Clark electrode, 25°C; repeated at least three times
Experimental: as §2, §3

## Antamanide [AA]
[1]
  attenuation of edema: attenuates IL-2-induced multisystem organ edema
[2]
  antagonism of hepatocyte transporter for phalloidin and alpha-amanitin: competitively antagonizes a hepatocyte membrane transporter
Animal model
  antitumor action: displays an antitumor action in an animal model
Tumour cell models
  tumor cell growth inhibition: inhibits tumor cell growth in vitro
[3]
  inhibition of cell uptake of phalloidin: block cell uptake of the phallotoxin phalloidin
[4]
  PTP inhibition (CRC): totally ineffective
[5]
  oxygen consumption: unaffected
[6]
  inhibition of membrane permeabilization by phalloidin: inhibits membrane permeabilization by phalloidin
[7]; digitonized wild-type cells, mean±SD of at least 4 experiments
  PTP inhibition (CRC/CRC0): display an inhibitory effect on the PTP in wild-type
[7]; wild-type fibroblasts, Student's t test
  CRC/CRC0: difference from CRC of untreated mitochondria: significant difference (Student's t test analysis; *: p<0.01)
[8]
  oxygen consumption: unaffected

Reference: PMC3030572, “Antamanide, a Derivative of Amanita phalloides, Is a Novel Inhibitor of the Mitochondrial Permeability Transition Pore” (PLoS ONE, 2011)
